Laboratory results from patent US20240027453A1, “METHOD FOR DETECTION AND QUANTITATIVE MONITORING OF INFECTIONS WITH HERPESVIRUSES” (The Trustees of Princeton University, priority 2020, published 2024).
Like-named read-outs stand apart in the source and are kept apart here.

Test system: HCMV
Type: cell-based
Protocol: In example herpesvirus PRM assay methods shown herein, cell pellets were lysed in 2% SDS, 100 mM NaCl, 0.5 mM EDTA, 50 mM Tris, pH 8.2, and 50 μg of protein was reduced and alkylated with 25 mM TCEP and 50 mM CAM respectively for 20 min at 70° C. Proteins were then precipitated via methanol chloroform precipitation (Wessel & Flugg, Anal Biochem. 138(1):141-143, 1984), resuspended in 50 mM HEPES, pH 8.2 and digested overnight with trypsin (50:1 protein:enzyme w/w ratio). Digested peptides were desalted by SDB-RPS StageTip as previously described (Lum et al., Cell Syst., 7(6):[…], 2018; Greco et al., Methods Mol Biol 1410:39-63, 2016; Federspiel & Cristea, Methods Mol Biol., 1977:115-143, 2019).
Peptides (1.0 μg on column) were analyzed by LC-MS/MS using a Dionex Ultimate 3000 UHPLC coupled online to an EASYSpray ion source and a Q Exactive HF. Peptides were separated on an EASYSpray C18 column (75 μm×25 cm) heated to 50° C. using a linear gradient of 5% B to 32% B over 60 min at a flow rate of 250 nL/min and were ionized at 1.7 kv. Mobile phase A consisted of 0.1% FA in H2O and mobile phase B consisted of 0.1% FA, 2.9% H2O in ACN.
The PRM method was controlled by a peptide inclusion list with retention time windows of 6 min for selected precursor ions.
The PRM assay was developed and analyzed using the open-source software Skyline (Maclean et al., Bioinformatics 26(7):966-968, 2010). Summed area under the curve of 3-4 transitions per peptide was used for quantitation. Targeted peptides were normalized to host protein loading control peptides. Peptide values for each sample were scaled to the average of each peptide across all runs. The average of multiple peptides was used as the inferred value for the protein measurement when more than one peptide was quantified (Federspiel et al., PLoS Biol. 17(9):e3000437. Doi: 10.1371/journal.pbio.3000437). PRM quantitation data were graphed using the Python Seaborn and Matplotlib libraries.
MRC5 primary human fibroblasts (HFs) (ATCC CCL-171) were used as the model system for HSV-1 and HCMV infections and were cultured in complete growth medium (DMEM supplemented with 10% fetal bovine serum and 1% penicillin-streptomycin antibiotics) at 37° C. and 5% CO2. iSLK.219 cells harboring latent KSHV (a gift from Dr. Britt Glaunsinger, University of California, Berkeley) were grown in complete growth medium supplemented with 500 μg/ml hygromycin (ThermoFisher Scientific, 10687010) at 37° C. and 5% CO2. All cells were used for experiments within a maximum of 10 passages.
Wild type HSV-1 strain 17+ (a gift from Beate Sodeik, Hannover Medical School, Hannover, Germany) was propagated as previously described (Diner et al., 2015). Briefly, PO stocks were generated by electroporating pBAC-HSV-1 into U-2 OS cells. […] In a similar manner, wild type HCMV strain AD169 was produced from BAC electroporation into HFs and working stocks were propagated by infecting HFs at a low level. In both cases, cell-associated virus was released by sonication, combined with supernatant virus, then concentrated by ultracentrifugation (20,000 rpm, 2 hours, 4° C. with SW28 swinging bucket rotor [Beckman Coulter]) over a 10% ficoll (HSV-1) or 20% sorbitol (HCMV) cushion. Virus stock titers were determined by plaque assay for HSV-1 or tissue culture infectious dose (TCID50) for HCMV and infections were performed at a multiplicity of infection (MOI) of 3.
12 hours prior to virus infection or reactivation, cells were treated with either the small molecule drug or DMSO/PBS control at an equivalent volume. […] For infection cycles lasting longer than 24 hours, small molecule drugs were re-added to the cell culture medium every 24 hours. Upon collection, cells were rinsed with PBS, scraped into a microcentrifuge tube, pelleted by centrifugation, and rinsed again with PBS.

Nc1c(S(=O)(=O)c2ccccc2)c2nc3ccccc3nc2n1-c1ccc(F)cc1 [CAY10602]
HCMV UL122 (IE2) and UL123 (IE1) levels: decreases
levels of HCMV viral immediate early proteins: reduced
HCMV UL123 levels (24 HPI, […] CAY10602, 50 μM trans-Resveratrol): unchanged
HCMV UL26 levels (48 HPI, […] CAY10602, 50 μM trans-Resveratrol): decreased
HCMV viral protein production (by 48 HPI): global reduction
HCMV UL99 levels (by 72 HPI, […] CAY10602, 50 μM trans-Resveratrol): robustly decreased
global decrease in HCMV viral protein levels (by 120 HPI, […] CAY10602, 50 μM trans-Resveratrol): ~70%
CVC2 (P16726) protein level (timepoint 24, DE): 0.01787
DBP (P17147) protein level (timepoint 24, DE): 0.1756
HELI (P16736) protein level (timepoint 24, DE): 0.3389
IR01 (P09710) protein level (timepoint 24, DE): 0.274
NEC2 (P16791) protein level (timepoint 24, DE): 0.03969
RIR1 (P16782) protein level (timepoint 24, DE): 0.09397
TRM1 (P16724) protein level (timepoint 24, DE): 0.04087
UL4 (P17146) protein level (timepoint 24, DE): 0.03736
UL26 (P16762) protein level (timepoint 24, DE): 0.07273
UL32 (P08318) protein level (timepoint 24, DE): 0.01952
UL34 (P16812) protein level (timepoint 24, DE): 0.1137
UL38 (P16779) protein level (timepoint 24, DE): 0.9755
UL44 (P16790) protein level (timepoint 24, DE): 0.06474
UL48 (P16785) protein level (timepoint 24, DE): 0.01175
UL54 (P08546) protein level (timepoint 24, DE): 0.6089
UL71 (P16823) protein level (timepoint 24, DE): 0.439
UL78 (P16751) protein level (timepoint 24, DE): 0.9755
UL84 (P16727) protein level (timepoint 24, DE): 0.1012
UL95 (P16801) protein level (timepoint 24, DE): 0.07625
UL96 (P16787) protein level (timepoint 24, DE): 0.387
UL97 (P16788) protein level (timepoint 24, DE): 0.2812
UL98 (P16789) protein level (timepoint 24, DE): 0.3005
UL102 (P16827) protein level (timepoint 24, DE): 0.5343
UL104 (P16735) protein level (timepoint 24, DE): 0.03903
UL112/UL113 (P17151) protein level (timepoint 24, DE): 0.5236
UL114 (P16769) protein level (timepoint 24, DE): 0.6704
UL119/UL118 (P16739) protein level (timepoint 24, DE): 0.2198
UL128 (P16837) protein level (timepoint 24, DE): 0.1113
US8 (P09730) protein level (timepoint 24, DE): 1.057
US9 (P09729) protein level (timepoint 24, DE): 0.627
US12 (P09721) protein level (timepoint 24, DE): 1.672
US13 (P09720) protein level (timepoint 24, DE): 0.6838
US14 (P09719) protein level (timepoint 24, DE): 0.3957
US18 (P69334) protein level (timepoint 24, DE): 0.5335
US22 (P09722) protein level (timepoint 24, DE): 0.3966
US23 (P09701) protein level (timepoint 24, DE): 0.6776
US24 (P09700) protein level (timepoint 24, DE): 0.62
US34 (P09709) protein level (timepoint 24, DE): 0.7981
gB (P06473) protein level (timepoint 24, DE): 0.1137
IRS1 (P09715) protein level (timepoint 24, IE): 0.3939
TRS1 (P09695) protein level (timepoint 24, IE): 0.2642
UL13 (P16755) protein level (timepoint 24, IE): 2.055
UL36 (P16767) protein level (timepoint 24, IE): 1.41
UL37 (P16778) protein level (timepoint 24, IE): 1.032
UL122 (P19893) protein level (timepoint 24, IE): 0.05997
UL123 (P13202) protein level (timepoint 24, IE): 0.9831
CVC1 (P16799) protein level (timepoint 24, L): 0.06119
IR11 (P16809) protein level (timepoint 24, L): 0.1044
MCP (P16729) protein level (timepoint 24, L): 0.004968
SCP (Q7M6N6) protein level (timepoint 24, L): 0.004248
TRM2 (P16792) protein level (timepoint 24, L): 0.01981
UL22A (P16845) protein level (timepoint 24, L): 0.04382
UL25 (P16761) protein level (timepoint 24, L): 0.03889
UL29 (P16764) protein level (timepoint 24, L): 0.8336
UL31 (P16848) protein level (timepoint 24, L): 0.3279
UL43 (P16781) protein level (timepoint 24, L): 0.06088
UL52 (P16793) protein level (timepoint 24, L): 0.01567
UL80 (P16753) protein level (timepoint 24, L): 0.0363
UL82 (P06726) protein level (timepoint 24, L): 0.1843
UL88 (P16731) protein level (timepoint 24, L): 0.03831
UL94 (P16800) protein level (timepoint 24, L): 0.08626
UL99 (P13200) protein level (timepoint 24, L): 0.0296
UL103 (P16734) protein level (timepoint 24, L): 0.3578
UL117 (P16770) protein level (timepoint 24, L): 0.4362
gH (P12824) protein level (timepoint 24, L): 0.04925
gL (P16832) protein level (timepoint 24, L): 0.03727
gM (P16733) protein level (timepoint 24, L): 0.03485
gN (P16795) protein level (timepoint 24, L): 0.1564
IR12 (P16810) protein level (timepoint 24, LL): 0.06811
TRX1 (P16783) protein level (timepoint 24, LL): 0.0077
TRX2 (P16728) protein level (timepoint 24, LL): 0.005245
UL24 (P16760) protein level (timepoint 24, LL): 0.1137
UL40 (P16780) protein level (timepoint 24, LL): 0.6403
UL47 (P16784) protein level (timepoint 24, LL): 0.008892
UL69 (P16749) protein level (timepoint 24, LL): 0.2203
UL70 (P17149) protein level (timepoint 24, LL): 0.1882
UL83 (P06725) protein level (timepoint 24, LL): 0.04505
UL132 (P69338) protein level (timepoint 24, LL): 0.1044
US15 (P09718) protein level (timepoint 24, LL): 1.318
CVC2 (P16726) protein level (timepoint 48, DE): 0.02711
DBP (P17147) protein level (timepoint 48, DE): 0.3215
HELI (P16736) protein level (timepoint 48, DE): 0.633
IR01 (P09710) protein level (timepoint 48, DE): 0.3157
NEC2 (P16791) protein level (timepoint 48, DE): 0.07071
RIR1 (P16782) protein level (timepoint 48, DE): 0.1157
TRM1 (P16724) protein level (timepoint 48, DE): 0.1031
UL4 (P17146) protein level (timepoint 48, DE): 0.07128
UL26 (P16762) protein level (timepoint 48, DE): 0.08021
UL32 (P08318) protein level (timepoint 48, DE): 0.02022
UL34 (P16812) protein level (timepoint 48, DE): 0.07906
UL35 (P16766) protein level (timepoint 48, DE): 0.007792
UL38 (P16779) protein level (timepoint 48, DE): 0.8139
UL44 (P16790) protein level (timepoint 48, DE): 0.08914
UL48 (P16785) protein level (timepoint 48, DE): 0.03443
UL54 (P08546) protein level (timepoint 48, DE): 0.7178
UL71 (P16823) protein level (timepoint 48, DE): 0.3459
UL78 (P16751) protein level (timepoint 48, DE): 0.7134
UL84 (P16727) protein level (timepoint 48, DE): 0.07575
UL95 (P16801) protein level (timepoint 48, DE): 0.1437
UL96 (P16787) protein level (timepoint 48, DE): 0.2583
UL97 (P16788) protein level (timepoint 48, DE): 0.1726
UL98 (P16789) protein level (timepoint 48, DE): 0.3796
